The subject of one assay is cyclooxygenase-2 (COX-2). Kind of assay: Assay A angiotensin II infusion model: cyclooxygenase-2 immunostaining of hearts. The assay is classed as in vivo, rat. To be noted: angiotensin II infused rats; eplerenone 100 mpk. The procedure:
Male Wistar rats (n—50, 10/group; BW=200 g)
2. Angiotensin 11 (25 ng/min, sc via aizet minipump)

For the next assay, the system named is osteopontin. Kind of assay: Assay C: osteopontin relative mRNA expression in heart (TaqMan). In kind it is in vivo, rat. Particulars: for Osteopontin, Mean / Osteopontin: mRNA; for Osteopontin, Mean: group mean; for Osteopontin: individual rats. The method, then: The procedure of Assay B was expanded upon in a further study. […] Myocardial tissue from animals in each treatment group was examined after 7, 14, or 30 days of treatment.
Potassium chloride supplementation was added to the saline solution in order to prevent the potential hypokalemia associated with aldosterone excess.
At the time of the surgery, an Alzet 2002 osmotic minipump (Alza Corp., Palo Alto, Calif.) containing either vehicle (9% ethanol/87% propylene glycol/4% dH2O) or 1.0 mg/mL d-aldosterone (Sigma Chemical, St. Louis, Mo.) was inserted subcutaneously at the nape of the neck. Aldosterone was administered at a dose of 0.75 g/hour. […] Animals were sacrificed from each group (n=8-13) after 7, 14, or 30 days of treatment.
The fluorogenic 5′-nuclease assay (TaqMan PCR) using Applied Biosystems' 7700 Sequence Detection System (Applied Biosystems, Foster City, Calif.) allowed for real time detection/quantitation of a specific gene by monitoring the increase in fluorescence of a gene-specific, dye-labeled oligonucleotide probe. Probes for target and reference genes were labeled at the 5′-end with a 6-carboxyfluorescein (6FAM) reporter dye and at the 3′-end with a 6-carboxy-N,N,N′,N′-tetramethylrhodamine (TAMRA) quencher dye. When the probe was annealed to the target gene, fluorescence of 6FAM was prevented by the close proximity of TAMRA. The exonuclease activity of Taq polymerase released the dyes from the oligonucleotide probe by displacing the probe from the target sequence resulting in fluorescence excitation in direct proportion to the amount of target message present. Data analysis was performed using the Sequence Detection System software from Applied Biosystems.
All primers and probes were designed using Primer Express software supplied with the 7700 Sequence Detection System and synthesized by Applied Biosystems. Standard curves using 5-fold dilutions of total RNA (from 200 ng to 320 pg) were performed to determine the efficiency of each primer/probe set in the TaqMan reaction prior to the analysis of the experimental samples. Primer/probe sets were designed from known sequences of rat genes to be analyzed. All target gene values were normalized to a reference gene, constitutively expressed cyclophilin. Primer/probe set sequences can be found in Table 8.
RNA was extracted from frozen (−80° C.) rat heart tissue using the Totally RNA Isolation Kit (Ambion, Inc., Austin, Tex.). Tissue was crushed using a stainless steel mortar and pestle, which had been chilled to −80° C. and transferred to a dounce homogenizer (Kontes, Vineland, N.J.) containing 3-10 mL cold denaturation buffer. Tissue was homogenized and transferred to a sterile, 15 mL polypropylene centrifuge tube. An equal volume of phenol:chloroform:isoamyl alcohol (25:24:1) was added, samples were shaken vigorously for 1 min, and incubated on ice for at least 15 min. Samples were centrifuged for 30 min at 10,000 g. The aqueous phase was removed, 1/10 volume of a sodium acetate solution (3.0 M NaOAc pH 4.5) was added, samples were shaken or inverted for 10 seconds, and acid-phenol (premixed with isoamyl alcohol):chloroform (5:1, Ambion, Inc.) was added at an volume equivalent to the starting sample volume. Samples were shaken vigorously for 1 min, followed by a 15-min incubation on ice, and centrifuged for 30 min at 10,000 g. The aqueous phase removed and placed in a clean polypropylene tube. An equal volume of isopropanol (Sigma, St. Louis, Mo.) was added and the samples were mixed and incubated overnight at −20° C. The samples were centrifuged for 30 min at 10,000 g, the supernatant was removed and the RNA pellet was resuspended in DNAse/RNAse-free water. Samples were frozen at −80° C. for at least 2 hours, thawed on wet ice, and diluted for quantitation.
On the technique in general: Quantitative PCR measures a nucleic acid by following its amplification.

The results in this text go back to US20030162759A1, “Aldosterone blocker therapy to prevent or treat inflammation-related disorders” (priority 2000, published 2003).

Values joined by “and” are separate entries in the source; they are usually repeats but may differ in a detail not shown here. Equal values may be shown once. “Also recorded” adds a separate entry of the source.

In the case of `COC(=O)[C@@H]1CC2=CC(=O)CC[C@]2(C)[C@@]23O[C@@H]2C[C@@]2(C)[C@@H](CC[C@@]24CCC(=O)O4)[C@H]13` [eplerenone, Pregn-4-ene-7,21-dicarboxylic acid, 9,11-epoxy-17-hydroxy-3-oxo-, γ-lactone, methyl ester, (7α, 11α, 17β) -], the “Cyclooxygenase-2 expression in the heart (immunostaining)” value in the assay on cyclooxygenase-2 (COX-2) is “prevention by eplerenone of induction of COX-2 expression; also recorded: markedly reduced and in most cases completely prevented the expression of cycloxygenase-2”. Also, the “Osteopontin, Mean” value with osteopontin (7 days of treatment) came to 0.75 AU; in the assay with osteopontin (14 days of treatment), 2.94 AU; in the assay on osteopontin (30 days of treatment) it was 2.59 AU. In addition, the Osteopontin with osteopontin (7 days of treatment, listed as Eplerenone + aldosterone + salt) was 0.54 AU and 0.52 AU and 0.27 AU and 0.60 AU and 0.96 AU and 0.75 AU; in the assay with osteopontin (14 days of treatment, listed as Eplerenone + aldosterone + salt) it was 1.00 AU and 0.77 AU and 1.59 AU and 0.72 AU and 0.99 AU; in the assay on osteopontin (30 days of treatment, listed as Eplerenone + aldosterone + salt), 1.28 AU. Also, the “Osteopontin mRNA expression in myocardium” value with osteopontin (time course 7, 14, 30 days, eplerenone 100 mg/kg/day) is recorded as “significantly reduced; also recorded: inhibition of early time-course expression of myocardial osteopontin”.

On to `C[C@]12CCC(=O)C=C1CC[C@@H]1[C@@H]2[C@@H](O)C[C@]2(C=O)[C@@H](C(=O)CO)CC[C@@H]12` [aldosterone], for which the “Cyclooxygenase-2 expression in the heart (immunostaining)” value with cyclooxygenase-2 (COX-2) is “restored the presence of cycloxygenase-2 in coronary arteries”. Also, the “Osteopontin, Mean” value was 6.56 AU with osteopontin (14 days of treatment) and 13.27 AU in the assay with osteopontin (30 days of treatment). Besides, the Osteopontin in the assay on osteopontin (7 days of treatment, listed as Aldosterone + salt) is 0.84 AU and 0.95 AU and 1.08 AU.
